Values quoted from earlier work as cited in patent US7563779B2, “L-ergothioneine, milk thistle, and S-adenosylmethionine for the prevention, treatment and repair of liver damage” (Nutramax Laboratories, priority 1998, dated 2009).

Legend:
[1] = test system: liver lipid accumulation; details: rats chronically intoxicated with ethanol
[2] = test system: liver nodules, pre-neoplastic lesions and hepatocellular carcinomas; details: administration of SAMe
[3] = test system: lipid peroxide formation in mouse liver homogenate; details: FIG. 5
[4] = test system: lipid peroxidation in liver tissue; details: exogenous L-ergothioneine, liver tissue of rats

Row | Compound | lipid accumulation [1] | amount of early reversible nodules [2] | development of late pre-neoplastic lesions and hepatocellular carcinomas [2] | LPO formation [3] | decomposition of existing LPO [3] | lipid peroxidation by toxic compounds [4]
1 | C[S+](CC[C@H](N)C(=O)O)C[C@H]1O[C@@H](n2cnc3c(N)ncnc32)[C@H](O)[C@@H]1O (stereo partly drawn) [SAMe, S-adenosylmethionine] | decrease lipid accumulation | fall in the amount of early reversible nodules | prevention of the development of late pre-neoplastic lesions and hepatocellular carcinomas | – | – | –
2 | C[N+](C)(C)[C@@H](Cc1c[nH]c(=S)[nH]1)C(=O)[O-] [L-ergothioneine] | – | – | – | inhibited LPO formation | enhanced the decomposition of existing LPO | prevent lipid peroxidation
